Active and inactive are the calls of the source. Cut-off read from the data, not from the text of the source, for most assays here: actives have a measured Kd and inactives only a lower limit.
Legend:
[1] = molecular target: Calcium/calmodulin-dependent protein kinase type II subunit delta (Homo sapiens, UniProt Q13557)
dCTP pyrophosphatase 1 = molecular target: T1, dCTP pyrophosphatase 1 (Homo sapiens, UniProt Q9H773)
T1 sequence (Q9H773 whole entry): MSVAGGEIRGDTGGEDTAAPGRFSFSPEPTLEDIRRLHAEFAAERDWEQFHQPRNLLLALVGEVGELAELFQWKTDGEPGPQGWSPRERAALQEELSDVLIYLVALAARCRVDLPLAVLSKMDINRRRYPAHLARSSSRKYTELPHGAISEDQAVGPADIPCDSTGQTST

LIM domain kinase 2 = LIM domain kinase 2 (Homo sapiens, UniProt P53671)
LIM domain kinase 2, sequence (P53671 whole entry, the tested form may be a part): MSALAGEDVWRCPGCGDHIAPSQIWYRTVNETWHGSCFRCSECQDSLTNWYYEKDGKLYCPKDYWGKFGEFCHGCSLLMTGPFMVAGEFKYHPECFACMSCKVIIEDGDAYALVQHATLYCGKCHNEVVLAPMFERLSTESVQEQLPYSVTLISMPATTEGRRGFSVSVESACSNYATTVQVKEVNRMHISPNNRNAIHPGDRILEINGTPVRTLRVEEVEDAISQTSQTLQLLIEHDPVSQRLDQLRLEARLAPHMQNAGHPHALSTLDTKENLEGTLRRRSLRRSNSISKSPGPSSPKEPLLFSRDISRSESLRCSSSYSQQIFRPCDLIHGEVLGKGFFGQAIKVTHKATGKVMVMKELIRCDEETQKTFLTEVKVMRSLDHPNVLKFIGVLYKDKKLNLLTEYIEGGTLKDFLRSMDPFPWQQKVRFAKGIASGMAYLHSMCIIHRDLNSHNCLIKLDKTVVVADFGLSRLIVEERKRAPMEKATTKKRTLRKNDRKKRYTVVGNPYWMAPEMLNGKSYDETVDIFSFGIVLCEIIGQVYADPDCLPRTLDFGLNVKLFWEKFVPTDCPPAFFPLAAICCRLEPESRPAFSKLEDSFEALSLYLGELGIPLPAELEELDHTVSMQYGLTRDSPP

[2] = molecular target: T2, Mitogen-activated protein kinase kinase kinase 3 (Homo sapiens, UniProt Q99759)
T2 sequence (Q99759 whole entry): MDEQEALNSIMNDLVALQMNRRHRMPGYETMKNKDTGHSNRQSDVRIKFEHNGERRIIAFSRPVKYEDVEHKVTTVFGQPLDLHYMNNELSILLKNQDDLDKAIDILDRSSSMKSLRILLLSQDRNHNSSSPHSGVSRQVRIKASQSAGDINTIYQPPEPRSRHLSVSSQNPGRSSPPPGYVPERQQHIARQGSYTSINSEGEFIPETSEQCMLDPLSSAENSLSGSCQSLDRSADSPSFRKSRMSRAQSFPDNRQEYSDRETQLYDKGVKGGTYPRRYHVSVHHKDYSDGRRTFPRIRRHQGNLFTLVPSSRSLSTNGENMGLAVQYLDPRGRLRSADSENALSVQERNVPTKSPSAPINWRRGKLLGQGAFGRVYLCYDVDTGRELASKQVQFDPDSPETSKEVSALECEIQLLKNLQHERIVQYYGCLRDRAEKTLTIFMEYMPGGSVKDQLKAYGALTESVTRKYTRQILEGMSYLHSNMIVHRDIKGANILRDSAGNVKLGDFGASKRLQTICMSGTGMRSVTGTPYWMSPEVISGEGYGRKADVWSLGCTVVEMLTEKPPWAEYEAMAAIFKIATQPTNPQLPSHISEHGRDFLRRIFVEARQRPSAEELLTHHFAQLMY

[3] = molecular target: T3, Serine/threonine-protein kinase D3 (Homo sapiens, UniProt O94806)
T3 sequence (O94806 whole entry): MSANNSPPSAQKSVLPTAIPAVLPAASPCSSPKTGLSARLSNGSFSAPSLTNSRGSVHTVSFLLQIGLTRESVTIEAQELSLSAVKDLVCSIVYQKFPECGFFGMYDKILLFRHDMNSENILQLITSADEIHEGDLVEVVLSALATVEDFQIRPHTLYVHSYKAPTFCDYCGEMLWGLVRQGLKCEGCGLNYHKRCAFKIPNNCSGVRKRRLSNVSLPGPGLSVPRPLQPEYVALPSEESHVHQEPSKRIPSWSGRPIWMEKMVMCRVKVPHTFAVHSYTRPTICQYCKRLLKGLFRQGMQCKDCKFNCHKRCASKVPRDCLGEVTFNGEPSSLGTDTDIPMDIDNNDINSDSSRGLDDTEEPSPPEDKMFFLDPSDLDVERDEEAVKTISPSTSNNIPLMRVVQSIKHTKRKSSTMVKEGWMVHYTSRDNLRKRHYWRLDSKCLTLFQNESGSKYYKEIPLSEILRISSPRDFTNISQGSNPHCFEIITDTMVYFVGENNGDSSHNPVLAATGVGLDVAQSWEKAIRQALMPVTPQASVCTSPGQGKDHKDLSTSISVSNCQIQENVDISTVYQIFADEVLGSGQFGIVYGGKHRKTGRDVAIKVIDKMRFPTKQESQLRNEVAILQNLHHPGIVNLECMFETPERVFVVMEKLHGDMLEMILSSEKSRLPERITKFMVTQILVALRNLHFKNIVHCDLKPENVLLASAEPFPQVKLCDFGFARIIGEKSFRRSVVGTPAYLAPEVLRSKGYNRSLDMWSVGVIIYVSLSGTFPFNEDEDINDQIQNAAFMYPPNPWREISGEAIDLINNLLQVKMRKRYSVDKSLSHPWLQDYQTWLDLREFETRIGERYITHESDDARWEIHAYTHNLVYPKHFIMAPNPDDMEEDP

[4] = molecular target: Ribosomal protein S6 kinase alpha-6 (Homo sapiens, UniProt Q9UK32)
Ribosomal protein S6 kinase alpha-6, sequence (Q9UK32 whole entry): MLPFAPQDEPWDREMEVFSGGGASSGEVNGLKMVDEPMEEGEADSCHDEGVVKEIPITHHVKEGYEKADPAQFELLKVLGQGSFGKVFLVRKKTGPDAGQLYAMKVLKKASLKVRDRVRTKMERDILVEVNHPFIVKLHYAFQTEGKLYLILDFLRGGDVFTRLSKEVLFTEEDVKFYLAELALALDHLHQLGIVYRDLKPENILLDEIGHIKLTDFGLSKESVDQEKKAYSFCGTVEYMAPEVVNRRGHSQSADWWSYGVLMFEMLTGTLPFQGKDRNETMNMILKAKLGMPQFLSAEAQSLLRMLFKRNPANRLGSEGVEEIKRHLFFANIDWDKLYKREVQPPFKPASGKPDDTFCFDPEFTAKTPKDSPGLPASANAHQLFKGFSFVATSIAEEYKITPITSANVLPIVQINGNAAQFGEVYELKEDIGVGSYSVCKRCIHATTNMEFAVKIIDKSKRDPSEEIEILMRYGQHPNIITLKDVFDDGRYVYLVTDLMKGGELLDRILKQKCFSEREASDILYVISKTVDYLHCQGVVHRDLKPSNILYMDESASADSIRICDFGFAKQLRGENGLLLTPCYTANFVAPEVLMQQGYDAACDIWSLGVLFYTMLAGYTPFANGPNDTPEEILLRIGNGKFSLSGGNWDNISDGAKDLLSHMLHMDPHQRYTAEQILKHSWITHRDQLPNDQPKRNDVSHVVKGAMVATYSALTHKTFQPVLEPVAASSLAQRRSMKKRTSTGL

[5] = molecular target: T4, Serine/threonine-protein kinase TAO1 (Homo sapiens, UniProt Q7L7X3)
T4 sequence (Q7L7X3 whole entry): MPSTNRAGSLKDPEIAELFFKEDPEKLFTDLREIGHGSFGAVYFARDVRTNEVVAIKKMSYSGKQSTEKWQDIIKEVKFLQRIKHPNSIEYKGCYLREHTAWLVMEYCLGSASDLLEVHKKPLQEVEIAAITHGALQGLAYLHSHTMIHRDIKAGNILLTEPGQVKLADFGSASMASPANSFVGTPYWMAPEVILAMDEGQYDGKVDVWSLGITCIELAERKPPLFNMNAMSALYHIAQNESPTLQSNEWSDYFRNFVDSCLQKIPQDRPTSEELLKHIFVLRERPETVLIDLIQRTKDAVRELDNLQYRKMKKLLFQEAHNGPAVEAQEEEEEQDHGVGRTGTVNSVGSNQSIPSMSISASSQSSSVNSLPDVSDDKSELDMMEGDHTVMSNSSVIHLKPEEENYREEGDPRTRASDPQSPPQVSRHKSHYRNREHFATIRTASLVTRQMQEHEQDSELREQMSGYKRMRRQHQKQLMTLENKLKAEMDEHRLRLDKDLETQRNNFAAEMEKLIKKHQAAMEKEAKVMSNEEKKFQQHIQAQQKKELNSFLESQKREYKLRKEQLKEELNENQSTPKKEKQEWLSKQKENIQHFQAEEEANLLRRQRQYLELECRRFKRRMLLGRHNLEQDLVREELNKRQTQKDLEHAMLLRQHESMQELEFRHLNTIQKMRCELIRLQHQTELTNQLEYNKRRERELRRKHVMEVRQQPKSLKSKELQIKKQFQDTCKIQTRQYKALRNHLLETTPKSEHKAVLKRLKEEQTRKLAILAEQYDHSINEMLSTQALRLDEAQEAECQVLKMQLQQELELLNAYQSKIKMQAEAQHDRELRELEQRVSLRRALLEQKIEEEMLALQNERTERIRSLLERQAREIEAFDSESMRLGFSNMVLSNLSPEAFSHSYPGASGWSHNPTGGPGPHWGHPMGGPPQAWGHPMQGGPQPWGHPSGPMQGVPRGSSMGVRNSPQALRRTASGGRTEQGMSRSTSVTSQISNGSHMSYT

[6] = molecular target: Elongation factor Tu, mitochondrial (Homo sapiens, UniProt P49411)
[7] = molecular target: S-adenosylmethionine synthase isoform type-2 (Homo sapiens, UniProt P31153)
S-adenosylmethionine synthase isoform type-2, sequence (P31153 whole entry, canonical isoform): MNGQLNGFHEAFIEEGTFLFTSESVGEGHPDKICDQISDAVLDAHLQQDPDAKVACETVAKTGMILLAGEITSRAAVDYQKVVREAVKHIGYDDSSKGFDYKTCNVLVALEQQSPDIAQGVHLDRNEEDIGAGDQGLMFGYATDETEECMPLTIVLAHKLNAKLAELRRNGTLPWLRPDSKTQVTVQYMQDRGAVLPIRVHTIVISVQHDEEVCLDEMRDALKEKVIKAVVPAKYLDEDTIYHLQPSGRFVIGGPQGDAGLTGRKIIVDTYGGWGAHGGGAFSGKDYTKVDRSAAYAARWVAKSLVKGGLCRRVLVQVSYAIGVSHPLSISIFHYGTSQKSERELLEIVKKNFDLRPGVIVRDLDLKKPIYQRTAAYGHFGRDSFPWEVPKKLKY
Note: in the data inactive means no Kd found up to 30 µM.

Calcium/calmodulin-dependent protein kinase type II subunit delta, sequence (Q13557 whole entry): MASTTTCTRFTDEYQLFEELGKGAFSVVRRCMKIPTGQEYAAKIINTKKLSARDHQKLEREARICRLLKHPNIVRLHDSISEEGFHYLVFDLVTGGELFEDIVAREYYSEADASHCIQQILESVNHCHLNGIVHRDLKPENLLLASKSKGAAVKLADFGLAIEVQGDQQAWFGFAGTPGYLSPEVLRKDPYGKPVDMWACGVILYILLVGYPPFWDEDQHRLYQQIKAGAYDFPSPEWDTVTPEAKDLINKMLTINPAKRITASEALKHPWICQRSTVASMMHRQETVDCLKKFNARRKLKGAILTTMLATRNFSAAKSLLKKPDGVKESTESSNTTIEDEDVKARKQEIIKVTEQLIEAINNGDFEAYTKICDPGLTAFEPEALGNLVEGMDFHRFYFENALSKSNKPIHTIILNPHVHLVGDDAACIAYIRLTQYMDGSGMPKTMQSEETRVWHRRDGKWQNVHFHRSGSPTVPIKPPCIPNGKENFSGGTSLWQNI

Compound: Nc1ncnc2c1c(-c1cccc(OCc3ccccc3)c1)cn2[C@H]1C[C@@H](CN2CCC2)C1 [AEW-541]
- Kd [1]: > 30 µM (inactive)
- Kd (dCTP pyrophosphatase 1): > 30 µM (inactive)
- Kd (LIM domain kinase 2): > 30 µM (inactive)
- Kd [2]: > 30 µM (inactive)
- Kd [3]: > 30 µM (inactive)
- Kd [4]: > 30 µM (inactive)
- Kd [5]: > 30 µM (inactive)
- Kd [6]: > 30 µM (inactive)

Compound: COc1cc(Nc2ncc3c(n2)-c2ccc(Cl)cc2C(c2c(F)cccc2OC)=NC3)ccc1C(=O)O [ALISERTIB]
- Kd (dCTP pyrophosphatase 1): > 30 µM (inactive)
- Kd (LIM domain kinase 2): > 30 µM (inactive)
- Kd [2]: > 30 µM (inactive)
- Kd [7]: > 30 µM (inactive)
- Kd [4]: > 30 µM (inactive)
- Kd [6]: > 30 µM (inactive)

Compound: Cc1csc(-c2nnc(Nc3ccc(Oc4ncccc4-c4ccnc(N)n4)cc3)c3ccccc23)c1 [AMG-900]
- Kd [1]: > 30 µM (inactive)
- Kd (dCTP pyrophosphatase 1): > 30 µM (inactive)
- Kd (LIM domain kinase 2): > 30 µM (inactive)
- Kd [2]: 2.75 µM (active)
- Kd [3]: 1.91 µM (active)
- Kd [4]: > 30 µM (inactive)
- Kd [5]: 1.9 µM (active)
- Kd [6]: > 30 µM (inactive)

Compound: O=C(Nc1c[nH]nc1-c1nc2cc(CN3CCOCC3)ccc2[nH]1)NC1CC1 [AT-9283]
- Kd [1]: > 30 µM (inactive)
- Kd (dCTP pyrophosphatase 1): > 30 µM (inactive)
- Kd (LIM domain kinase 2): 4.43 µM (active)
- Kd [2]: 0.345 µM (active)
- Kd [7]: > 30 µM (inactive)
- Kd [5]: 2.22 µM (active)
- Kd [6]: > 30 µM (inactive)

Compound: CNC(=O)c1ccccc1Sc1ccc2c(/C=C/c3ccccn3)n[nH]c2c1 [AXITINIB]
- Kd (dCTP pyrophosphatase 1): > 30 µM (inactive)
- Kd [7]: > 30 µM (inactive)
- Kd [6]: > 30 µM (inactive)

Compound: NC(=O)Nc1cc(-c2cccc(F)c2)sc1C(=O)N[C@H]1CCCNC1 [AZD-7762]
- Kd [1]: > 30 µM (inactive)
- Kd (dCTP pyrophosphatase 1): > 30 µM (inactive)
- Kd (LIM domain kinase 2): > 30 µM (inactive)
- Kd [2]: > 30 µM (inactive)
- Kd [3]: 2.14 µM (active)
- Kd [4]: 1.51 µM (active)
- Kd [5]: > 30 µM (inactive)
- Kd [6]: > 30 µM (inactive)

Compound: Cc1cc(C(=O)NOCCO)c(Nc2ccc(I)cc2F)n(C)c1=O [AZD-8330]
- Kd [1]: > 30 µM (inactive)
- Kd (dCTP pyrophosphatase 1): > 30 µM (inactive)
- Kd (LIM domain kinase 2): > 30 µM (inactive)
- Kd [2]: > 30 µM (inactive)
- Kd [3]: > 30 µM (inactive)
- Kd [4]: > 30 µM (inactive)
- Kd [5]: > 30 µM (inactive)
- Kd [6]: > 30 µM (inactive)

Compound: CC(C)(C)c1nc(-c2cccc(NS(=O)(=O)c3c(F)cccc3F)c2F)c(-c2ccnc(N)n2)s1 [DABRAFENIB]
- Kd [1]: > 30 µM (inactive)
- Kd (dCTP pyrophosphatase 1): > 30 µM (inactive)
- Kd (LIM domain kinase 2): 0.082 µM (active)
- Kd [7]: > 30 µM (inactive)
- Kd [3]: 0.12 µM (active)
- Kd [4]: > 30 µM (inactive)
- Kd [6]: > 30 µM (inactive)

Compound: Cn1cc(C2=C(c3cn(C4CCN(Cc5ccccn5)CC4)c4ccccc34)C(=O)NC2=O)c2ccccc21 [ENZASTAURIN]
- Kd (dCTP pyrophosphatase 1): > 30 µM (inactive)
- Kd [7]: > 30 µM (inactive)
- Kd [6]: > 30 µM (inactive)

Compound: C[C@@H](Oc1cc(-n2cnc3ccc(CN4CCN(C)CC4)cc32)sc1C(N)=O)c1ccccc1C(F)(F)F [GSK-461364]
- Kd (dCTP pyrophosphatase 1): > 30 µM (inactive)
- Kd [7]: > 30 µM (inactive)
- Kd [6]: > 30 µM (inactive)

Compound: CCn1cc(-c2ccnc3[nH]c(-c4cccc(CN(C)C)c4)cc23)c(-c2ccc(NC(=O)N(C)C)cc2)n1 [GSK-1070916]
- Kd [1]: > 30 µM (inactive)
- Kd (dCTP pyrophosphatase 1): > 30 µM (inactive)
- Kd (LIM domain kinase 2): > 30 µM (inactive)
- Kd [2]: > 30 µM (inactive)
- Kd [3]: 1.93 µM (active)
- Kd [4]: > 30 µM (inactive)
- Kd [6]: > 30 µM (inactive)

Compound: CNC(=O)c1nn(C)c2c1C(C)(C)Cc1cnc(Nc3ccc(N4CCN(C)CC4)cc3)nc1-2 [MILCICLIB]
- Kd [1]: > 30 µM (inactive)
- Kd (dCTP pyrophosphatase 1): 1.59 µM (active)
- Kd (LIM domain kinase 2): > 30 µM (inactive)
- Kd [2]: > 30 µM (inactive)
- Kd [7]: > 30 µM (inactive)
- Kd [3]: 0.135 µM (active)
- Kd [4]: > 30 µM (inactive)
- Kd [6]: > 30 µM (inactive)

Compound: Cc1[nH]c(/C=C2\C(=O)Nc3ccccc32)c(C)c1CCC(=O)O [ORANTINIB]
- Kd (dCTP pyrophosphatase 1): > 30 µM (inactive)
- Kd (LIM domain kinase 2): > 30 µM (inactive)
- Kd [2]: > 30 µM (inactive)
- Kd [4]: > 30 µM (inactive)
- Kd [6]: > 30 µM (inactive)

Compound: NC(=O)c1c(OCc2c(F)cc(Br)cc2F)nsc1NC(=O)NCCCCN1CCCC1 [OSI-632]
- Kd (dCTP pyrophosphatase 1): > 30 µM (inactive)
- Kd (LIM domain kinase 2): > 30 µM (inactive)
- Kd [7]: > 30 µM (inactive)
- Kd [4]: > 30 µM (inactive)
- Kd [6]: > 30 µM (inactive)

Compound: Cc1nc(Nc2n[nH]c3c2CN(C(=O)N[C@H](CN(C)C)c2ccccc2)C3(C)C)c2sccc2n1 [PF-03758309]
- Kd (dCTP pyrophosphatase 1): > 30 µM (inactive)
- Kd (LIM domain kinase 2): > 30 µM (inactive)
- Kd [2]: > 30 µM (inactive)
- Kd [7]: > 30 µM (inactive)
- Kd [3]: 0.268 µM (active)
- Kd [4]: 0.004 µM (active)
- Kd [5]: > 30 µM (inactive)
- Kd [6]: > 30 µM (inactive)

Compound: CC(=O)NCC(=O)N1[C@@H]2CC[C@H]1c1ccc(Nc3ncc(C(F)(F)F)c(NC4CCC4)n3)cc12 [PF-03814735]
- Kd (dCTP pyrophosphatase 1): > 30 µM (inactive)
- Kd (LIM domain kinase 2): > 30 µM (inactive)
- Kd [2]: 0.246 µM (active)
- Kd [7]: > 30 µM (inactive)
- Kd [6]: > 30 µM (inactive)

Compound: O=C(NOCCO)c1cc(CN2OCCCC2=O)c(F)c(F)c1Nc1ccc(I)cc1F [RO-4987655]
- Kd (dCTP pyrophosphatase 1): > 30 µM (inactive)
- Kd [7]: > 30 µM (inactive)
- Kd [6]: > 30 µM (inactive)

Compound: N#CC[C@H](C1CCCC1)n1cc(-c2ncnc3[nH]ccc23)cn1 [RUXOLITINIB]
- Kd (dCTP pyrophosphatase 1): > 30 µM (inactive)
- Kd [7]: > 30 µM (inactive)
- Kd [6]: > 30 µM (inactive)

Compound: C[C@@H](N)c1ccc(C(=O)Nc2ccnc3[nH]ccc23)cc1 [Y-39983]
- Kd [1]: > 30 µM (inactive)
- Kd (dCTP pyrophosphatase 1): > 30 µM (inactive)
- Kd (LIM domain kinase 2): > 30 µM (inactive)
- Kd [2]: > 30 µM (inactive)
- Kd [7]: > 30 µM (inactive)
- Kd [4]: > 30 µM (inactive)
- Kd [5]: 2.03 µM (active)
- Kd [6]: > 30 µM (inactive)

From ChEMBL document CHEMBL3991601, “The target landscape of clinical kinase drugs” (Science, 2017)
